Test results as given in patent US20260159474A1, “Aminoindane Compounds and Compositions and Methods of Their Therapeutic Use” (Solvonis Therapeutics Ireland Holdings Limited, priority 2021, published 2026).
Entries after “also recorded” stand apart in the source; their conditions may differ.

Columns and labels:
[1] = Intrinsic clearance in human liver microsomes; type: in vitro ADME; conditions: for microsomal CLint at 0.5 μM: pH 7.4, read-out: Cl (μL/min/mg protein) - Human Microsomes
Protocol: Methods: The general procedure involved incubating test compounds with liver microsomes and subsequently detecting the compounds to determine intrinsic clearance. Clearance was estimated from the rate of depletion k (min-1), the volume of the incubation V (mL), and the amount of microsomal proteins in the incubation M (mg). Intrinsic clearance is defined by the following equation: Clint=k*V/M.
Values for CLint are expressed as μL/min/mg liver microsomes. Verapamil and dextromethorphan were used as positive controls for CYP3A4 and CYP2D6 isoforms, respectively, to confirm metabolic activity. Stock solutions were prepared in DMSO for therapeutic compounds and positive controls verapamil and dextromethorphan (10 mM for all). Working solutions were prepared by diluting stock in MeOH to reach […]. However, this concentration can be varied, e.g., when the test item is not soluble in the selected solvent.
Prior to experimentation, frozen liver microsomes were thawed in a water bath at 37° C. and kept on ice until use. The microsomes were then diluted with 50 mM potassium phosphate buffer pH 7.4 to a protein concentration of 0.56 mg/mL. To prepare test and control items in final incubation conditions, 5 μL of test compound and positive control working solutions were added to 445 μL of microsomes incubation mixture at 0.56 mg/mL and 50 μL of regenerating system.
As it relates to the automated incubation procedure for microsomes incubation, the following procedure was followed. Briefly, 150 μL of quenching solution (ACN containing an appropriate Internal Standard, i.e. Rolipram and Diclofenac for positive and negative ion mode, respectively) was manually dispensed or dispensed by using the Hamilton system in each well of 96 deep well 1 mL plates. Next, 800-1000 μL-aliquots of NADPH regenerating system were pre-warmed at 37° C. for 5 minutes. 5 μL of 50 µM test items and control were added to 445 μL of the 0.56 mg/mL microsomes solution, and the incubation mixture was pre-warmed in a 96 deep well 2 mL plate (incubation plate) at 37° C. for 5 minutes. The incubation reactions were initiated by adding 50 μL of pre-warmed NADPH regenerating system to the incubation mixtures.
50 μL-aliquots were sampled from incubation mixtures at: 0, 3, 10, 15, 30, and 45 minutes. The samples were centrifuged at 3,000 rpm for 10 minutes and further diluted in order to optimize the analytical condition prior to the LC MS/MS or Rapid Fire-MS/MS analysis. Incubations of test items were run in duplicate (n=2) with a single positive control (n=1). For sample analysis, an LC-MS/MS system was used to monitor the test samples/control to internal standard peak area ratios as representative of the test or control item's concentration. Data from test item incubation was processed to give mean values where applicable. Metabolic stability was calculated from the ratio of peak area of the remaining test or control item with internal standard versus time.
Peak areas for test and control items were integrated using Integrator Software from Agilent or Analyst or MultiQuant Software from AB SciexTM and were exported to XLFit or Morphit (The Edge), which were designed to calculate in vitro metabolic stability parameters. The integrated peak areas of the test and control items at the selected time points were divided by the respective peak areas of the IS, and the percent of parent remaining was calculated by normalizing the peak area ratio of parent to IS at 0 min. Observed rate constant (kobs) for parent degradation was calculated by determining the slope of the line of the graph of the natural log of percentage parent remaining versus time of incubation. This was scaled for the protein in the incubation relative to that in the liver.

[2] = Plasma protein binding by equilibrium dialysis, human plasma; type: in vitro ADME; conditions: for Human Plasma (Fu %): fraction unbound, 0.5 μM; for fraction unbound at 5 h, 0.5 μM: human, plasma, pH 7.4, read-out: Human Plasma (Fu %)
Protocol: Methods: Plasma protein binding and blood tissue binding of test items (0.5 μM) was determined using biological samples from male Sprague Dawley (SD) rats and humans. […] Dexamethasone was used as a control compound for lung tissue binding. Various biological samples were spiked with test compounds according to the methods that follow.
Preparation of plasma or blood samples: An appropriate amount of test compound was dissolved in DMSO to yield a 10 mM solution. Further dilutions, to obtain 50 μM working solutions (WS), were then prepared using 50% acetonitrile in Milli-Q water. These 100×WS were used to spike plasma or blood to obtain a final concentration of 0.5 μM. From this initial spiking solution, control samples (n=3), referred to as T=0, were immediately extracted and used to calculate the recovery of the test item.
An equilibrium dialysis method was performed to determine protein binding in the various biological samples described herein. Materials were prepared and methods were in accordance with the following procedures.
Membranes were prepared for use in the equilibrium dialysis experiment. by soaking in deionized water for at least 60 minutes. After this period, 20% of pure ethanol was added, and the membranes were left in this solution for at least 20 minutes. The membranes were then rinsed in Milli-Q water prior to use.
To initiate the experiment, 150 μL of test item-free buffer (isotonic phosphate buffer for plasma and blood, artificial CSF buffer for brain or HBSS buffer for lung) was dispensed on one half-well of a 96-well dialyzer apparatus (HTDialysis LLC), and 150 μL of spiked matrix (plasma, blood, brain or lung) was loaded on the other half-well. Alternative volumes may be used according to the operating instructions of HTDialysis.
Dialysis buffer was prepared by dissolving Na2HPO4 8.69 g, KH2PO4 1.90 g, and NaCl 4.11 g in […] of MilliQ water, and adjusting the pH to 7.4 with H3PO4. At the end of the equilibration period (device is sealed and incubated under shaking for 5 hours at 37° C.), 50 μL of dialysed matrix will be added to 50 μL of corresponding test item free dialysed buffer, and vice versa for buffer, such that the volume of buffer to matrix will be the same. Samples were extracted by protein precipitation with 300 μL of acetonitrile containing rolipram (for positive ionization mode) or diclofenac (for negative ionization mode) as internal standard and centrifuged for 10 minutes at 2800 rpm. Supernatants were collected (100 μL), diluted with 18% ACN in Milli Q water (200 μL).
Samples were then injected onto an HPLC MS/MS or UPLC MS/MS system. In order to control the integrity of the membrane after the dialysis process, the presence of protein was assessed in the buffer compartment. 5 μL of dialysed buffer will be added with 250 μL of Bio-Rad protein assay reagent (Bio-Rad) diluted 1:5 with Milli-Q water. A change in color from brown to a brilliant blue indicates protein contamination. Contaminated samples were excluded from all calculations.
Samples were analyzed in a LC-MS/MS system using an analytical method to monitor the compound to internal standard peak area ratios as representative of the compound concentrations. Alternatively, samples were analyzed by RapidFire.
Protein binding in plasma, blood, brain, and lung tissue samples were determined with the following formula: Afu=Buffer/x, wherein “x” may be plasma, blood, brain, or lung, and “Afu” is the apparent fraction unbound, and the other variables refer to the analyte/internal standard ratio determined in their specific compartment (buffer, plasma, blood, brain homogenate, and lung homogenate); Fucr-(1/D)/[(1/Afu)-1+(1/D)], wherein fucr is the fraction unbound corrected, D is the matrix dilution factor (D=1 for plasma, 2 for blood, 3 for brain, 7 for lung). % Binding=(1−fucr)×100 and % Unbound=100—% Bound. See, e.g., Kalvass et al., Drug Metab Dispos., 2018; 46(4):458-469. […]

## COC(=O)c1cc2c(cc1OC)CC(N)C2 (centres unmarked) [CMP-401]
[1]
  Cl (μL/min/mg protein) - Human Microsomes: greater clearance in human microsomes relative to MDMA
  microsomal CLint at 0.5 μM: 87.2 µL/min/mg
[2]
  Human Plasma (Fu %): >50%
  fraction unbound at 5 h, 0.5 μM: > 0.5

## COC(=O)COc1ccc2c(c1)CC(N)C2 (centres unmarked) [CMP-402]
[1]
  Cl (μL/min/mg protein) - Human Microsomes: greater clearance in human microsomes relative to MDMA; also recorded: greatest clearance
  microsomal CLint at 0.5 μM: 758 µL/min/mg
[2]
  Human Plasma (Fu %): >50%
  fraction unbound at 5 h, 0.5 μM: > 0.5

## COC(=O)c1ccc2c(c1)CC(N)C2 (centres unmarked) [CMP-405, 2-aminoindane-5-methylcarboxylate]
[1]
  Cl (μL/min/mg protein) - Human Microsomes: greater clearance in human microsomes relative to MDMA
  microsomal CLint at 0.5 μM: 137 µL/min/mg
[2]
  Human Plasma (Fu %): high binding in plasma specimens and Low

## CNC(C)Cc1ccc2c(c1)OCO2 (centres unmarked) [MDMA]
[1]
  Cl (μL/min/mg protein) - Human Microsomes: 41 μL/min/mg protein
[2]
  Human Plasma (Fu %): >50%

## COc1ccc2c(c1)CC(N)C2 (centres unmarked) [MEAI, 5-methoxy-2-aminoindane]
[1]
  microsomal CLint at 0.5 μM: 137 µL/min/mg
[2]
  fraction unbound at 5 h, 0.5 μM: > 0.5

## COc1cc2c(cc1C)CC(N)C2 (centres unmarked) [MMAI, 5-methoxy-6-methyl-2-aminoindane]
[1]
  microsomal CLint at 0.5 μM: 46.7 µL/min/mg
[2]
  fraction unbound at 5 h, 0.5 μM: > 0.5
